Data as given in patent US20090239841A1, “Diaryl Ureas as CB1 Antagonists” (priority 2004, published 2009).

biological target: T1, hCB1 (Homo sapiens, UniProt P21554); experiment: Agonist-induced GTP binding (GTPγ35S) assay at CB1, Example 8; type: biochemical; settings: IC50 at CB1, determined as described in Example 8; read-out: IC50
T1 construct: made in house; host or cells: Sf9 insect cells (baculovirus), P2 membranes
Method in brief: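 Membranes from Sf9 cells co-expressing hCB1 and heterotrimeric G-protein (10 μg protein) in Tris pH 7.4 buffer with 5 μM GDP. Test compounds (10^−10–10^−5 M) competed against 1 nM CP55,940 with […] GTPγ35S, 60 min at room temperature. Filter-bound radioactivity by scintillation, expressed as percent above basal.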

T1 sequence (P21554 whole entry): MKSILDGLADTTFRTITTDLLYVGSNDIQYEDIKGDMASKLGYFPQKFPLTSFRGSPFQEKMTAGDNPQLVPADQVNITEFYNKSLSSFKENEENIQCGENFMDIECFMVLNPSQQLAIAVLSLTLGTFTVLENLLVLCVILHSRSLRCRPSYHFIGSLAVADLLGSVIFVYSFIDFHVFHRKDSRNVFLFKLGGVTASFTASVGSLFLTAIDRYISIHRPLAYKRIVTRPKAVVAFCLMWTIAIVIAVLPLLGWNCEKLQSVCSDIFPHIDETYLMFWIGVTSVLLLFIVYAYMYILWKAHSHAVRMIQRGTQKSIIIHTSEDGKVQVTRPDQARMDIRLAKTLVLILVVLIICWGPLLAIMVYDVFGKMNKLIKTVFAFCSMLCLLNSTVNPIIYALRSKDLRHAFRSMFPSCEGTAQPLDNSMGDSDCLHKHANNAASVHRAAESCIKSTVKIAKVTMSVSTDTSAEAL

IC50, < 2000 nM:
CC(=O)c1ccc(NC(=O)Nc2ccc(Cl)cc2)cc1 [Compound 344, 1-(4-acetylphenyl)-3-(4-chlorophenyl)urea]
CC(C)Oc1ccc(NC(=O)Nc2ccccc2)cc1 [Compound 375, 1-(4-isopropoxyphenyl)-3-phenylurea]
O=C(Nc1ccc(S(=O)(=O)N2CCNCC2)cc1)Nc1cccc(OC(F)F)c1 [Compound 789, N-[3-(difluoromethoxy)phenyl]-N′-[4-(1-piperazinylsulfonyl)phenyl]urea]
COc1cccc(NC(=O)Nc2ccc(OC(C)C)cc2)c1 [Compound 551, 1-(4-isopropoxyphenyl)-3-(3-methoxyphenyl)urea]
COCc1ccc(NC(=O)Nc2ccc(OC)cc2)cc1 [Compound 545, 1-[4-(methoxymethyl)phenyl]-3-(4-methoxyphenyl)urea]
CC(C)OC(=O)c1ccc(NC(=O)Nc2ccc(F)cc2)cc1 [Compound 480, isopropyl 4-({[(4-fluorophenyl)amino]carbonyl}amino)benzoate]
CC(=O)c1ccc(NC(=O)Nc2ccc(C(C)C)cc2)cc1 [Compound 348, 1-(4-acetylphenyl)-3-(4-isopropylphenyl)urea]
Cc1ccc(NC(=O)Nc2ccc(OC(F)F)cc2)cc1F [Compound 606, 1-[4-(difluoromethoxy)phenyl]-3-(3-fluoro-4-methylphenyl)urea]
CCOc1ccc(NC(=O)Nc2ccc(F)cc2)cc1 [Compound 358, 1-(4-ethoxyphenyl)-3-(4-fluorophenyl)urea]
CCOc1ccc(NC(=O)Nc2ccc(Cl)c(C(F)(F)F)c2)cc1 [Compound 625, 1-[4-chloro-3-(trifluoromethyl)phenyl]-3-(4-ethoxyphenyl)urea]
CCc1cccc(NC(=O)Nc2cccc(OC(F)F)c2)c1 [Compound 406, 1-[3-(difluoromethoxy)phenyl]-3-(3-ethylphenyl)urea]
CCOc1cccc(NC(=O)Nc2ccc(C(C)C)cc2)c1 [Compound 570, 1-(3-ethoxyphenyl)-3-(4-isopropylphenyl)urea]
CCOc1ccc(NC(=O)Nc2ccc(F)c(F)c2)cc1 [Compound 619, 1-(3,4-difluorophenyl)-3-(4-ethoxyphenyl)urea]
COC(=O)c1ccc(NC(=O)Nc2ccc(C(C)=O)cc2)cc1 [Compound 510, methyl 4-({[(4-acetylphenyl)amino]carbonyl}amino)benzoate]
COc1ccc(NC(=O)Nc2cc(F)cc(F)c2)cc1 [Compound 701, 1-(3,5-difluorophenyl)-3-(4-methoxyphenyl)urea]
CCOc1ccc(NC(=O)Nc2cccc(F)c2)cc1 [Compound 357, 1-(4-ethoxyphenyl)-3-(3-fluorophenyl)urea]
O=C(Nc1ccc(F)cc1)Nc1cccc(OC(F)F)c1 [Compound 372, 1-[3-(difluoromethoxy)phenyl]-3-(4-fluorophenyl)urea]
CCOC(=O)c1ccc(NC(=O)Nc2cccc(CC)c2)cc1 [Compound 497, ethyl 4-({[(3-ethylphenyl)amino]carbonyl}amino)benzoate]
COCc1ccc(NC(=O)Nc2cccc(C(=O)OC)c2)cc1 [Compound 667, methyl 3-[({[4-(methoxymethyl)phenyl]amino}carbonyl)amino]benzoate]
CC(=O)c1ccc(NC(=O)Nc2ccc(OC(C)C)cc2)cc1 [Compound 424, 1-(4-acetylphenyl)-3-(4-isopropoxyphenyl)urea]
CCc1ccc(NC(=O)Nc2ccc(COC)cc2)cc1 [Compound 393, 1-(4-ethylphenyl)-3-[4-(methoxymethyl)phenyl]urea]
O=C(Nc1ccc(OC(F)F)cc1)Nc1cccc(Br)c1 [Compound 520, 1-(3-bromophenyl)-3-[4-(difluoromethoxy)phenyl]urea]
CCc1ccc(NC(=O)Nc2ccc(OCC#N)cc2)cc1 [Compound 489, N-[4-(cyanomethoxy)phenyl]-N′-(4-ethylphenyl)urea]
COC(=O)c1ccc(NC(=O)Nc2ccccc2)cc1 [Compound 481, methyl 4-[(anilinocarbonyl)amino] benzoate]
Cn1nnnc1-c1cccc(NC(=O)Nc2ccc(Cn3ccnn3)cc2)c1 [Compound 794, N-[3-(1-methyl-1H-tetrazol-5-yl)phenyl]-N′-[4-(1H-1,2,3-triazol-1-ylmethyl)phenyl]urea]
COc1ccc(NC(=O)Nc2ccc(C(C)C)cc2)cc1 [Compound 522, 1-(4-isopropylphenyl)-3-(4-methoxyphenyl)urea]
N#Cc1cccc(NC(=O)Nc2ccc3c(c2)CCC3)c1 [Compound 454, 1-(3-cyanophenyl)-3-(2,3-dihydro-1H-inden-5-yl)urea]

same assay, conditions: Table I; IC50 at CB1, GTP binding with 1 nM CP55,940; read-out: IC50

IC50, < 2000 nM:
CCc1ccc(NC(=O)Nc2ccccc2)cc1 [Compound 35, N-(4-ethylphenyl)-N′-phenylurea]
O=C(Nc1ccc(OC(F)F)cc1)Nc1cccc(O)c1 [Compound 17, N-[4-(difluoromethoxy)phenyl]-N′-(3-hydroxyphenyl)urea]

same assay, conditions: Table II; IC50 at CB1, GTP binding with 1 nM CP55,940; read-out: IC50

IC50, < 2000 nM:
CC(=O)c1ccc(NC(=O)Nc2cccc(OC(C)C)c2)cc1 [Compound 278, N-(4-acetylphenyl)-N′-(3-isopropoxyphenyl)urea]
O=C(Nc1ccc(OC(F)F)cc1)Nc1ccc(-c2ccccc2)cc1 [Compound 99, N-biphenyl-4-yl-N′-[4-(difluoromethoxy)phenyl]urea]
CCc1cncc(-c2cccc(NC(=O)Nc3ccc(OC(F)F)cc3)c2)n1 [Compound 124, N-[4-(difluoromethoxy)phenyl]-N′-[3-(6-ethylpyrazin-2-yl)phenyl]urea]
CCOc1cccc(NC(=O)Nc2ccc(C#N)cc2)c1 [Compound 261, N-(4-cyanophenyl)-N′-(3-ethoxyphenyl)urea]
O=C(Nc1ccc(OC(F)F)cc1)Nc1ccc(C(=O)c2ccccc2)cc1 [Compound 140, N-(4-benzoylphenyl)-N′-[4-(difluoromethoxy)phenyl]urea]
CCOc1ccc(NC(=O)Nc2ccc(C(C)=O)cc2)cc1 [Compound 267, N-(4-acetylphenyl)-N′-(4-ethoxyphenyl)urea]
CC(C)Oc1ccc(NC(=O)Nc2ccc(OC(F)F)cc2)cc1 [Compound 97, N-[4-(difluoromethoxy)phenyl]-N′-(4-isopropoxyphenyl)urea]
O=C(Nc1ccc(OC(F)F)cc1)Nc1ccc(C(F)(F)F)nc1 [Compound 76, N-[4-(difluoromethoxy)phenyl]-N′-[6-(trifluoromethyl)pyridin-3-yl]urea]
CC(C)Oc1ccc(NC(=O)Nc2cccc(C#N)c2)cc1 [Compound 280, N-(3-cyanophenyl)-N′-(4-isopropoxyphenyl)urea]
O=C(Nc1cccc(OC(F)F)c1)Nc1ccc(N2CCOCC2)c(Cl)c1 [Compound 143, N-(3-chloro-4-morpholin-4-ylphenyl)-N′-[3-(difluoromethoxy)phenyl]urea]
CCc1ccc(NC(=O)Nc2cnc3ccccc3c2)cc1 [Compound 125, N-(4-ethylphenyl)-N′-quinolin-3-ylurea]
